This passage reports IC50 results from ChEMBL document CHEMBL1148524, “Novel and selective alpha(v)beta3 receptor peptide antagonist: design, synthesis, and biological behavior” (J Med Chem, 2006).

This test has as its target Integrin alpha-V/beta-3 (Homo sapiens, UniProt P05106+P06756). Briefly: Inhibition of adhesion of K562 cells expressing alphaVbeta3 integrin receptor to vitronectin. It counts as cell-based.

Sequence of Integrin alpha-V/beta-3 (P05106 27-788 limits assumed): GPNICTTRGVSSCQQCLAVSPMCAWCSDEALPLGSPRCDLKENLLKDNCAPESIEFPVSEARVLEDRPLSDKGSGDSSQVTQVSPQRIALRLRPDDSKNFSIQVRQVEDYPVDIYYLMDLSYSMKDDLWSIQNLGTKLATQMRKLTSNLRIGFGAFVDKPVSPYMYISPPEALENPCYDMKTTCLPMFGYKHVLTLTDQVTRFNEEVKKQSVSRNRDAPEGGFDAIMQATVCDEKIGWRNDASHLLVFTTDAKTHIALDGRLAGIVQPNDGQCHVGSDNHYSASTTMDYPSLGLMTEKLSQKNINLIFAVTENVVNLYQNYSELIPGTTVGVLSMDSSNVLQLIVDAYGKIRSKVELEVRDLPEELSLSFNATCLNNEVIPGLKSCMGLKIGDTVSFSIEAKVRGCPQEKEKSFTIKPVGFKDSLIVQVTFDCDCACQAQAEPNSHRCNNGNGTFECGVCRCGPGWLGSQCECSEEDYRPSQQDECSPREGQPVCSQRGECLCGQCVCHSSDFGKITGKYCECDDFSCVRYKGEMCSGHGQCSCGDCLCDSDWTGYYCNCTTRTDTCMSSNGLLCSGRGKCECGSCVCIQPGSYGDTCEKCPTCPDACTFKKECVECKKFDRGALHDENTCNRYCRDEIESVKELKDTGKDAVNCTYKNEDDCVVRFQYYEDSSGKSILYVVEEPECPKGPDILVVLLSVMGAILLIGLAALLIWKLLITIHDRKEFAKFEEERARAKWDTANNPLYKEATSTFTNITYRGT
Sequence of Integrin alpha-V/beta-3 (P06756 31-889 limits assumed): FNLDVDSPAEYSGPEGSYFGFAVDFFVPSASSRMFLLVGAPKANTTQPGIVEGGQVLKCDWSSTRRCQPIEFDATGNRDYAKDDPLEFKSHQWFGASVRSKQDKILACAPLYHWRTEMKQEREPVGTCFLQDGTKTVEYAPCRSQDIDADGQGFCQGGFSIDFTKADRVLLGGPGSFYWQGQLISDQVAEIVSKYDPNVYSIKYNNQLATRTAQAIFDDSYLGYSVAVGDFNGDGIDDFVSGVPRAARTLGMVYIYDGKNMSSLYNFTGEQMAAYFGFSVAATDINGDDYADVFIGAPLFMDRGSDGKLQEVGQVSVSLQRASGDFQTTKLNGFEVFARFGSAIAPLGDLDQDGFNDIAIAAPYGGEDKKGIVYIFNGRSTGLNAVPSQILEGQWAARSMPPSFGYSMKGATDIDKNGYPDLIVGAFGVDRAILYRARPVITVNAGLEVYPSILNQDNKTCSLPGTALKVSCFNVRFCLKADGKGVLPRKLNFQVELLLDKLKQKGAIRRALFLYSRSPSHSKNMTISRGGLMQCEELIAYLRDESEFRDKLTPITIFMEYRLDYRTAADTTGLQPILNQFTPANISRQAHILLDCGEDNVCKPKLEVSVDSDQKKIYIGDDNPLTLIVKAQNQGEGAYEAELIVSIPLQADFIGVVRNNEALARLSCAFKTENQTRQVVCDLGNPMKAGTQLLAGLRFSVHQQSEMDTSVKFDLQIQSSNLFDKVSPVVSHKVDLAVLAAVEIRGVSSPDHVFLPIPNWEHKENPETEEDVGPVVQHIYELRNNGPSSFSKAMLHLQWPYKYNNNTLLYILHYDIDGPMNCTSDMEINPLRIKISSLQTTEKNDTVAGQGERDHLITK
Sequence of Integrin alpha-V/beta-3 (P06756 891-1048 limits assumed): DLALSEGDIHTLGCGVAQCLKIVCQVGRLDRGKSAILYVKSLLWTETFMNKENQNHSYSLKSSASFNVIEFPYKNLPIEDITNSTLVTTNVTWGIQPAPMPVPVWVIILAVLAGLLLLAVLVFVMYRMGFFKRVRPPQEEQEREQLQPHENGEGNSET

In general, IC50 refers to the concentration needed to halve the response being measured. Low readings indicate greater potency in that assay, high ones weaker potency in that assay. For the molecule `CSCC[C@H](NC(=O)CC[C@H]1NC(=O)[C@H](CC(=O)O)NC(=O)CNC(=O)[C@H](CCCN=C(N)N)NC(=O)[C@H](CCCCN)NC1=O)C(=O)N[C@@H](CC(=O)O)C(=O)N[C@@H](CC(=O)O)C(=O)N1CCC[C@H]1C(=O)NCC(=O)/N=C(\N)NCCC[C@H](N)C(=O)N[C@@H](CC(N)=O)C(=O)N1CCC[C@H]1C(=O)N[C@@H](Cc1c[nH]cn1)C(=O)N[C@@H](CCCCN)C(=O)NCC(=O)N1CCC[C@H]1C(=O)N[C@@H](C)C(=O)N[C@H](C(=O)O)[C@@H](C)O`, half-maximal inhibition (IC50) was put at 880 nM.
